According to publication PMC11872117, “Inhibitory effects of Kratom constituents, mitragynine and 7-hydroxymitragynine, on 4-methylumbelliferone glucuronidation by human UDP-glucuronosyltransferases” (Toxicology Reports, 2025):

Key:
Format in all cases: biochemical
UGT2B7 = target: T1, UGT2B7 (Homo sapiens, UniProt P16662); assay: 4MU glucuronidation, HPLC of 4MUG
T1 construct: Supersome recombinant human enzyme (Corning), microsomal preparation
T1 sequence (P16662 24-529): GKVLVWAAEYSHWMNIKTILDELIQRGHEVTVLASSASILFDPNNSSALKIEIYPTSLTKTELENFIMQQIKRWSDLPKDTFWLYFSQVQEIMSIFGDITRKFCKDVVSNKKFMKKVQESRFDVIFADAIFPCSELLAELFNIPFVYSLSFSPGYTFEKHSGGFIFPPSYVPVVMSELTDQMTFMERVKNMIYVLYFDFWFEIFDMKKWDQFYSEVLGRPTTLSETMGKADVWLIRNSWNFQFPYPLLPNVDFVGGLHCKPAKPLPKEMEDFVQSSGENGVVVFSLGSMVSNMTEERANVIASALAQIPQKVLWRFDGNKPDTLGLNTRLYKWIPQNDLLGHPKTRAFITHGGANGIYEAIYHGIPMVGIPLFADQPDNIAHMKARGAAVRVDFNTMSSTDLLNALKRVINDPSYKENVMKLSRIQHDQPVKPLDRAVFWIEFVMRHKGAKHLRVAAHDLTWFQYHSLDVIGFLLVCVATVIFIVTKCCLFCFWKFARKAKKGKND
Source text: 4MU glucuronidation, HPLC of 4MUG on UGT2B7

UGT1A9 [1] = target: T2, UGT1A9 (Homo sapiens, UniProt O60656); assay: 4MU glucuronidation, HPLC of 4MUG, Dixon plot
T2 construct: Supersome recombinant human enzyme (Corning), microsomal preparation
T2 sequence (O60656 26-530): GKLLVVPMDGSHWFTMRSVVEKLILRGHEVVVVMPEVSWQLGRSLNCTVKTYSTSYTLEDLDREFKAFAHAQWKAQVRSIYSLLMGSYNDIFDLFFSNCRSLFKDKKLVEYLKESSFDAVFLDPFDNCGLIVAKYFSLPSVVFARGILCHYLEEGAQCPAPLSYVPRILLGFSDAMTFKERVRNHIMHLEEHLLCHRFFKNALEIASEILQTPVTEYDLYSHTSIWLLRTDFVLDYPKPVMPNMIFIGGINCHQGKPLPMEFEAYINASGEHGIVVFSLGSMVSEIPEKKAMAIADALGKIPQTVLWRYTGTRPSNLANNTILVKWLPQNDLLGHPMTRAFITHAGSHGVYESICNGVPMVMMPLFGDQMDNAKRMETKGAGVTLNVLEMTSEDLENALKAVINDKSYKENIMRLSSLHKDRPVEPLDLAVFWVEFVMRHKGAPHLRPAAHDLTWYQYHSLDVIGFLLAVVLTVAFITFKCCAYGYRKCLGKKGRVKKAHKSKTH
Source text: 4MU glucuronidation, HPLC of 4MUG, Dixon plot on UGT1A9

UGT1A3 [2] = target: T3, UGT1A3 (Homo sapiens, UniProt P35503); assay: 4MU glucuronidation, HPLC of 4MUG
T3 construct: Supersome recombinant human enzyme (Corning), microsomal preparation
T3 sequence (P35503 29-534): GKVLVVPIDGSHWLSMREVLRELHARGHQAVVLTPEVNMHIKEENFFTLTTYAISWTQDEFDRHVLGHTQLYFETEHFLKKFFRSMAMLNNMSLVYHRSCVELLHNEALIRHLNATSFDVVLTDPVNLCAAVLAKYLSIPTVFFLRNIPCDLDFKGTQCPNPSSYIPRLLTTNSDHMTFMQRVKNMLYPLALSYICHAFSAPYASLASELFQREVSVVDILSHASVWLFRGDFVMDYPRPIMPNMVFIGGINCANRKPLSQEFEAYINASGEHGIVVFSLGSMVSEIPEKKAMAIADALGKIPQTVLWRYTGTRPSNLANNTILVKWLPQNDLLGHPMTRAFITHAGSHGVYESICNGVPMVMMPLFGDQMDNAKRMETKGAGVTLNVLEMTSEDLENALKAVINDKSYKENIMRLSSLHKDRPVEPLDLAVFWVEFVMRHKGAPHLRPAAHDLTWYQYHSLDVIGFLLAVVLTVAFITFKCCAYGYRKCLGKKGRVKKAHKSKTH
Source text: 4MU glucuronidation, HPLC of 4MUG on UGT1A3

UGT2B15 = target: T4, UGT2B15 (Homo sapiens, UniProt P54855); assay: 4MU glucuronidation, HPLC of 4MUG
T4 construct: Supersome recombinant human enzyme (Corning), microsomal preparation
T4 sequence (P54855 24-530): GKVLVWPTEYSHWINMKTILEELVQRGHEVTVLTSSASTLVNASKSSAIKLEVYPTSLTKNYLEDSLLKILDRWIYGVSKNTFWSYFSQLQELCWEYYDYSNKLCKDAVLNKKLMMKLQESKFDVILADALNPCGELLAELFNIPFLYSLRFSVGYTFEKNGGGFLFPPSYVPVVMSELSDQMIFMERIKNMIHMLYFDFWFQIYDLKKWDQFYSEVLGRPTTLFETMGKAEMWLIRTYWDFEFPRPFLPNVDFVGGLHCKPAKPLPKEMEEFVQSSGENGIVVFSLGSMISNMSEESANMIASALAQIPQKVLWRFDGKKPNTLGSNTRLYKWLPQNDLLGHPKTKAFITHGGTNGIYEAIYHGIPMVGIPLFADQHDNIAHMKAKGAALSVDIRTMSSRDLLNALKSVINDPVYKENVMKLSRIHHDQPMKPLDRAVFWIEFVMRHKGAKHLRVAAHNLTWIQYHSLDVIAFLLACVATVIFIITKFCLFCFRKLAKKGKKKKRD
Source text: 4MU glucuronidation, HPLC of 4MUG on UGT2B15

UGT1A3 [3] = target: T3, UGT1A3; assay: 4MU glucuronidation, HPLC of 4MUG, Dixon plot
Source text: 4MU glucuronidation, HPLC of 4MUG, Dixon plot on UGT1A3

UGT1A6 = target: T5, UGT1A6 (Homo sapiens, UniProt P19224); assay: 4MU glucuronidation, HPLC of 4MUG
T5 construct: Supersome recombinant human enzyme (Corning), microsomal preparation
T5 sequence (P19224 27-532): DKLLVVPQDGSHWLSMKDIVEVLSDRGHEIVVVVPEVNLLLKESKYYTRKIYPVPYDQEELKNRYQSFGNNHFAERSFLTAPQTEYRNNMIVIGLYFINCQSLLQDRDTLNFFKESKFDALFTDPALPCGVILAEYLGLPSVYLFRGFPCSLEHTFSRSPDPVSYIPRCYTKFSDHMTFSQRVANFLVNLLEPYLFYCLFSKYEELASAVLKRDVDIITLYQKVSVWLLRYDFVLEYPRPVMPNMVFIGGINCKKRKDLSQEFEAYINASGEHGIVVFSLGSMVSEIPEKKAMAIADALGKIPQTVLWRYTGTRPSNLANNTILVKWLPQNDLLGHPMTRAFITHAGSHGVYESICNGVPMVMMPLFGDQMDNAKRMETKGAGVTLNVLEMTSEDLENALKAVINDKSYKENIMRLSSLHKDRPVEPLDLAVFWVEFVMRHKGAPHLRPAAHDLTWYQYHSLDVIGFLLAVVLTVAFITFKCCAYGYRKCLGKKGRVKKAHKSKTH
Source text: 4MU glucuronidation, HPLC of 4MUG on UGT1A6

UGT1A9 [4] = target: T2, UGT1A9; assay: 4MU glucuronidation, HPLC of 4MUG
Source text: 4MU glucuronidation, HPLC of 4MUG on UGT1A9

UGT1A1 = target: T6, UGT1A1 (Homo sapiens, UniProt P22309); assay: 4MU glucuronidation, HPLC of 4MUG
T6 construct: Supersome recombinant human enzyme (Corning), microsomal preparation
T6 sequence (P22309 26-533): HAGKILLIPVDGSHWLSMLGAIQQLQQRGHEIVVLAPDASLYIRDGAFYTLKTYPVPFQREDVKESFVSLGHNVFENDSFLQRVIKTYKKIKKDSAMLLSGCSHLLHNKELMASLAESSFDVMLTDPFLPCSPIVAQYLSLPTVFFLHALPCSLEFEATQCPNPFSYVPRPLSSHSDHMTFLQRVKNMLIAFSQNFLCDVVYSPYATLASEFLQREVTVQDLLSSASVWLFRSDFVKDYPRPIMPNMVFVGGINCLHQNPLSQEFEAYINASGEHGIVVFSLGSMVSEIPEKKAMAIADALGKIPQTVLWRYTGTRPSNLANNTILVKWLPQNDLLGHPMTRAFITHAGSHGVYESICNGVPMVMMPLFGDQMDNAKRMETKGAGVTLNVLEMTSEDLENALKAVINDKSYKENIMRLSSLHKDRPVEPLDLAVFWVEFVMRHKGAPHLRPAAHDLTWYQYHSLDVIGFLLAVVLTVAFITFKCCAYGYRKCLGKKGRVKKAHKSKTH
Source text: 4MU glucuronidation, HPLC of 4MUG on UGT1A1

Question: With `CC[C@@H]1CN2CCc3c([nH]c4cccc(OC)c34)[C@@H]2C[C@@H]1/C(=C\OC)C(=O)OC` [mitragynine] as the molecule, how does the IC50 (UGT2B7) read?
Answer: The IC50 was > 200 µM.

Question: What about the Ki (UGT1A9 [1]) of the same molecule?
Answer: The Ki was 114 ± 13 µM.

Question: What about the IC50 (UGT1A3 [2]) of the same molecule?
Answer: The IC50 was 72 ± 0.16 µM.

Question: What about the IC50 (UGT2B15) of the same molecule?
Answer: Its IC50 is 152 ± 24 µM.

Question: And the Ki (UGT1A3 [3])?
Answer: The Ki was 45 ± 1.3 µM.

Question: And the IC50 (UGT1A6)?
Answer: Its IC50 is 121 ± 44 µM.

Question: What about the IC50 (UGT1A9 [4]) of the same molecule?
Answer: Its IC50 is 131 ± 11 µM.

Question: And the IC50 (UGT1A1)?
Answer: The IC50 was > 200 µM.
